These results are taken from patent US20110319491A1, “ANHYDROUS DEPIGMENTING COMPOSITIONS COMPRISING, WITHIN THE FATTY PHASE THEREOF, A SOLUBILIZED PHENOLIC COMPOUND AND A RETINOID” (GALDERMA RESEARCH & DEVELOPMENT, priority 2009, published 2011).

Series [1] in a line: Chemical stability of the formulations (HPLC assay of the active agents). Format: physicochemical. On the procedure: The chemical stability is measured by assaying the active agents by external calibration in HPLC and the results are expressed as a % of […] relative to the theoretical value.
For series [2] the following is noted: in all the solvents that may be used for retinoids; cited from earlier work.

As for `COc1ccc(-c2ccc3cc(C(=O)O)ccc3c2)cc1C12CC3CC(CC(C3)C1)C2` [Adapalene, 6-(3-(1-adamantyl)-4-methoxyphenyl)-2-naphthoic acid], the “Chemical stability: adapalene assay, % relative to the theoretical value” in series [1] (in composition of Example 2, 40° C., T + 1 M) is on record as 92.4%; in series [1] (in composition of Example 2, 40° C., T + 2 M) it was 96.8%; in series [1] (in composition of Example 2, 40° C., T + 3 M) it was 94.5%; in series [1] (in composition of Example 2, RT, T + 1 M), 94%; in series [1] (in composition of Example 2, RT, T + 2 M) it was 97.4%; in series [1] (in composition of Example 2, RT, T + 3 M), 95.3%. The “Chemical stability: adapalene assay, % relative to the theoretical value” in series [1] (in composition of Example 3, 4° C., T + 1 M) is given as 104%; in series [1] (in composition of Example 3, 4° C., T + 2 M), 107.0%; in series [1] (in composition of Example 3, 40° C., T + 1 M) it was 108%; in series [1] (in composition of Example 3, 40° C., T + 2 M), 106.0%; in series [1] (in composition of Example 3, RT, T0), 108.7%; in series [1] (in composition of Example 3, RT, T + 1 M) it was 106%. Also, the “Chemical stability: adapalene assay, % relative to the theoretical value” in series [1] (in composition of Example 3, RT, T + 2 M) stood at 106.0%. In addition, the “Solubility of adapalene (in words)” value in series [2] is “insoluble”.
